Results reported in PubChem BioAssay (NCI).
Several values for one entry are separate records, joined by “and”; a condition that tells them apart may be missing. Equal values may be shown once.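 Assay format: 96-well plates, 48-hour exposure. GI50 = concentration required for 50% inhibition of growth. TGI: total growth inhibition.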

Experiments:
Experiment in all cases: inhibition of tumour cell growth, NCI panel, 48 h
UACC-62 melanoma = test system: UACC-62 melanoma
RPMI-8226 leukemia = test system: RPMI-8226 leukemia
UO-31 renal = test system: UO-31 renal
NCI-H226 lung = test system: NCI-H226 lung
HOP-62 NSCLC = test system: HOP-62 NSCLC
SR leukemia = test system: SR leukemia
SN12C renal = test system: SN12C renal
KM12 colon = test system: KM12 colon
TK-10 renal = test system: TK-10 renal
SF-539 CNS = test system: SF-539 CNS

SMILES | GI50 (UACC-62 melanoma) | TGI (UACC-62 melanoma) | GI50 (RPMI-8226 leukemia) | TGI (RPMI-8226 leukemia) | GI50 (UO-31 renal) | TGI (UO-31 renal) | GI50 (NCI-H226 lung) | TGI (NCI-H226 lung) | GI50 (HOP-62 NSCLC) | TGI (HOP-62 NSCLC) | GI50 (SR leukemia) | TGI (SR leukemia) | GI50 (SN12C renal) | TGI (SN12C renal) | GI50 (KM12 colon) | TGI (KM12 colon) | GI50 (TK-10 renal) | TGI (TK-10 renal) | GI50 (SF-539 CNS) | TGI (SF-539 CNS)
Clc1ccc2c(c1)N(C1CCCN(Cc3ccccc3)C1)c1ccccc1S2 (stereo unspecified) | 6.94 µM | > 100 µM | 3.91 µM | > 100 µM | 3.12 µM | > 100 µM | 22.6 µM | > 100 µM | 22.3 µM | > 100 µM | 3.01 µM | 32.7 µM | 5.79 µM | > 100 µM | 4.73 µM | > 100 µM | 71.8 µM | > 100 µM | 4.61 µM | 56.2 µM
O=C(NCCOCCOCCOCCNC(=O)c1cc2c(o1)C(=O)c1ccccc1C2=O)NC12CC3CC(CC(C3)C1)C2 | 0.571 µM | 1.92 µM | 1.87 µM | 5.63 µM | 1.69 µM | 3.77 µM | 1.56 µM | 3.66 µM | 2.03 µM | 3.53 µM | 2.37 µM | 11.7 µM | 1.34 µM | 2.71 µM | 3.34 µM | 13 µM | 3.68 µM | 7.24 µM | 1.59 µM | 3.16 µM
Oc1[nH]c2ccccc2c1/C=c1/ccc2c(c1)N=C(c1ccc(C(F)(F)F)cc1)N=2 | 2.62 µM | 15.8 µM | 1.34 µM | 4 µM | 2.48 µM | 13 µM | 14.5 µM | 30.5 µM | 4.94 µM | 15.6 µM | 1.7 µM | 4.54 µM | 6.91 µM | 20.6 µM | 1.09 µM | 12.7 µM | 10.4 µM | 22.2 µM | 7.45 µM | 21.1 µM
COc1cc(-c2nc3ccccc3o2)cc(CN2CCCCC2)c1O | 1.63 µM | 3.2 µM | 2.85 µM | > 100 µM | 1.92 µM | 21.8 µM | 1.85 µM | 4.32 µM | 2.58 µM | 9.96 µM | 5.24 µM | 71.9 µM | 1.5 µM | 4.25 µM | 2.39 µM | 16.6 µM | 31.2 µM | > 85.8 µM | 2.93 µM | 7.68 µM
COc1ccc2c(O)c(/C=C3\N=Nc4ncccc43)oc2c1C[C@@H]1CCNC[C@H]1F | 1.32 µM | 3.79 µM | 0.266 µM | 0.984 µM | 1.61 µM | 5.18 µM | 0.256 µM | 3.55 µM | 0.336 µM | 2.94 µM |  | 0.193 µM | 0.458 µM | 2.22 µM | 0.314 µM | 1.4 µM | 2.11 µM | 5.91 µM | 0.428 µM | 1.99 µM
CCOC(=N)CC(=O)Nc1ccccc1 |  | > 100 µM |  | 22.8 µM |  | > 46.4 µM |  | > 31.6 µM |  | > 46.4 µM |  | > 69.1 µM |  | > 46.4 µM |  | > 46.4 µM |  | > 46.4 µM |  | > 46.4 µM
O=C(c1ccc([N+](=O)[O-])cc1)C(Br)C(Br)c1ccnc2ccccc12 (stereo unspecified) |  | 24.6 µM |  | 5.91 µM |  | 3.58 µM |  | 33.6 µM |  | 29.7 µM |  | 5.69 µM |  | 14.4 µM |  | 5.13 µM |  | 12.6 µM |  | 15.3 µM
C#C[C@@]1(O)[C@@H](CO)O[C@@H](n2cc(C(F)(F)F)c3c(N)ncnc32)[C@@H]1O | 0.707 µM | 2.63 µM | 0.886 µM | 4.56 µM | 0.311 µM | 3.16 µM | 2.7 µM | > 100 µM | 1.75 µM | > 100 µM | 0.306 µM | 1.7 µM | 0.658 µM | > 100 µM | 0.365 µM | > 30.4 µM | 0.966 µM | > 28.2 µM | 0.86 µM | 2.71 µM
CC(=O)/C(Br)=C/c1ccc(Br)o1 | 14 µM | 28.3 µM | 4.73 µM | 13.1 µM | 10.2 µM | 29.1 µM | 12.7 µM | 26.2 µM | 24.6 µM | 59.2 µM | 1.72 µM | 5.42 µM | 8.11 µM | 26.7 µM | 12 µM | 25.9 µM | 5.42 µM | 17.9 µM | 5 µM | 10.8 µM
CC[C@H](C)[C@H](NC(=O)[C@H]1CCCCN1C)C(=O)N(C)[C@H](C[C@@H](OC(C)=O)c1cccc(C(=O)N[C@@H](Cc2ccccc2)C[C@H](C)C(=O)O)n1)C(C)C | 0.00038 µM and 0.0025 µM | > 25 µM | 0.000816 µM and 0.0025 µM | > 25 µM |  | > 25 µM |  | > 25 µM | 0.00275 µM and 0.0025 µM | > 25 µM | 0.000529 µM and 0.0025 µM | > 25 µM | 0.00417 µM and 0.0025 µM | > 25 µM | 0.00116 µM and 0.0025 µM | > 25 µM |  | > 25 µM | 0.00148 µM and < 0.0025 µM | 0.00742 µM and < 0.0025 µM
[N-]=[N+]=NCCCn1c2c(c3ccc([N+](=O)[O-])cc3c1=O)C(=O)c1cc(-c3ccccc3)ccc1-2 | > 100 µM | > 100 µM | > 100 µM | > 100 µM | > 100 µM | > 100 µM | > 100 µM | > 100 µM | > 100 µM | > 100 µM | 37.2 µM | > 100 µM | > 100 µM | > 100 µM | > 100 µM | > 100 µM | > 100 µM | > 100 µM | > 100 µM | > 100 µM
c1ccc(Oc2ccc(Nc3ncc(-c4ccccc4)o3)cc2)cc1 | > 25 µM | > 25 µM | > 25 µM | > 25 µM | > 25 µM | > 25 µM | > 25 µM | > 25 µM | > 25 µM | > 25 µM | > 25 µM | > 25 µM | > 25 µM | > 25 µM | > 25 µM | > 25 µM | > 25 µM | > 25 µM | > 25 µM | > 25 µM
